Laboratory results reported in ChEMBL document CHEMBL1201862, “PubChem BioAssay data set” (2004).
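Where inhibition never reached the appropriate level, the endpoint shown equals the highest concentration tested. Otherwise, values were interpolated linearly from a five-concentration, 48-hour dose response in 96-well plates. The concentration for 50% growth inhibition is given as GI50.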 The source made the active and inactive calls. Rule as the data show it: active = GI50 up to about 1.1 µM and inactive = higher.

Columns and labels:
Assay in all cases: DTP human tumour cell line panel, 48 h
A549 = tested on: A549
EKVX = tested on: EKVX
HCT-15 = tested on: HCT-15
HOP-62 = tested on: HOP-62
IGROV-1 = tested on: IGROV-1
LOX IMVI = tested on: LOX IMVI
NCI-H226 = tested on: NCI-H226
NCI-H460 = tested on: NCI-H460
OVCAR-4 = tested on: OVCAR-4
OVCAR-5 = tested on: OVCAR-5
OVCAR-8 = tested on: OVCAR-8
SF-268 = tested on: SF-268
SN12C = tested on: SN12C
U-251 = tested on: U-251
UO-31 = tested on: UO-31
COLO 205 = tested on: COLO 205
DU-145 = tested on: DU-145
MCF7 = tested on: MCF7
NCI/ADR-RES = tested on: NCI/ADR-RES

| Structure (SMILES) | GI50 (A549) | GI50 (EKVX) | GI50 (HCT-15) [µM] | GI50 (HOP-62) | GI50 (IGROV-1) | GI50 (LOX IMVI) | GI50 (NCI-H226) | GI50 (NCI-H460) | GI50 (OVCAR-4) | GI50 (OVCAR-5) | GI50 (OVCAR-8) | GI50 (SF-268) | GI50 (SN12C) | GI50 (U-251) | GI50 (UO-31) | GI50 (COLO 205) | GI50 (DU-145) | GI50 (MCF7) | GI50 (NCI/ADR-RES) |
| --- | --- | --- | --- | --- | --- | --- | --- | --- | --- | --- | --- | --- | --- | --- | --- | --- | --- | --- | --- |
| O=S1(=O)CCCS(=O)(=O)C(c2ccccc2)=C1c1ccccc1 | 42.3 µM (inactive) | > 100 µM (inactive) | 27.7 | 30.3 µM (inactive) | 70.5 µM (inactive) | 33 µM (inactive) | 56.5 µM (inactive) | 47.3 µM (inactive) | 23.3 µM (inactive) | > 100 µM (inactive) | 91.6 µM (inactive) | > 100 µM (inactive) | 29.4 µM (inactive) | 92.7 µM (inactive) | > 100 µM (inactive) | – | – | – | – |
| COc1cc(C(C)O)c[n+](CCc2c[nH]c3ccccc23)c1 (stereo not given) | > 100 µM (inactive) | 48.3 µM (inactive) | > 100 | > 100 µM (inactive) | > 100 µM (inactive) | > 100 µM (inactive) | – | > 100 µM (inactive) | > 100 µM (inactive) | – | > 100 µM (inactive) | 27.1 µM (inactive) | > 100 µM (inactive) | > 100 µM (inactive) | > 100 µM (inactive) | 72.8 µM (inactive) | – | – | – |
| CC1(Br)C(=O)NC(=O)N([C@H]2C[C@H](O)[C@@H](CO)O2)C1N=[N+]=[N-] (stereo not given in full) | > 100 µM (inactive) | > 100 µM (inactive) | > 100 | > 100 µM (inactive) | > 100 µM (inactive) | > 100 µM (inactive) | > 100 µM (inactive) | > 100 µM (inactive) | > 100 µM (inactive) | > 76.2 µM (inactive) | > 100 µM (inactive) | > 100 µM (inactive) | > 100 µM (inactive) | > 100 µM (inactive) | > 100 µM (inactive) | > 100 µM (inactive) | – | – | – |
| COc1cccc(C=C(C#N)C#N)c1OC | > 100 µM (inactive) | > 100 µM (inactive) | > 100 | > 100 µM (inactive) | > 100 µM (inactive) | – | > 100 µM (inactive) | > 100 µM (inactive) | > 100 µM (inactive) | > 100 µM (inactive) | > 100 µM (inactive) | > 100 µM (inactive) | > 100 µM (inactive) | > 100 µM (inactive) | > 100 µM (inactive) | > 100 µM (inactive) | > 100 µM (inactive) | > 100 µM (inactive) | > 100 µM (inactive) |
| Cn1c(=O)c(C(=O)NC(=O)OCc2ccccc2)cn(CCSCCOC(=O)NCCCCCCNC(=O)OCCSCCn2cc(C(=O)NC(=O)OCc3ccccc3)c(=O)n(C)c2=O)c1=O | > 100 µM (inactive) | > 100 µM (inactive) | > 100 | 36.7 µM (inactive) | > 100 µM (inactive) | > 100 µM (inactive) | > 100 µM (inactive) | > 100 µM (inactive) | > 100 µM (inactive) | > 100 µM (inactive) | > 100 µM (inactive) | 84.9 µM (inactive) | > 100 µM (inactive) | 63.4 µM (inactive) | 74.6 µM (inactive) | > 100 µM (inactive) | – | – | – |
| CC(=O)/C(=C\c1ccccc1O)C(=O)Nc1ccccc1C | 20.5 µM (inactive) | 36 µM (inactive) | 14.1 | 20.9 µM (inactive) | 25.9 µM (inactive) | 14.3 µM (inactive) | 27.4 µM (inactive) | 23.7 µM (inactive) | 29.4 µM (inactive) | 21.2 µM (inactive) | 31.7 µM (inactive) | 26 µM (inactive) | > 10 µM (inactive) | 8.85 µM (inactive) | 16 µM (inactive) | – | – | – | – |
| CN1CC[C@]2(C)c3c(O)cccc3CC3CCCC1C32C (stereo not given in full) | > 100 µM (inactive) | > 100 µM (inactive) | > 100 | > 100 µM (inactive) | > 100 µM (inactive) | > 100 µM (inactive) | > 100 µM (inactive) | > 100 µM (inactive) | – | > 100 µM (inactive) | > 100 µM (inactive) | > 100 µM (inactive) | > 100 µM (inactive) | > 100 µM (inactive) | > 100 µM (inactive) | > 100 µM (inactive) | – | – | – |
| COc1cc(/C=C(\NC(=O)c2ccccc2)c2nc3ccc4c(c3[nH]2)C(=O)c2ccccc2C4=O)cc(OC)c1OC | 21.4 µM (inactive) | 44 µM (inactive) | 35.7 | > 100 µM (inactive) | 10.7 µM (inactive) | 20.3 µM (inactive) | > 100 µM (inactive) | – | 69.3 µM (inactive) | > 100 µM (inactive) | 41.6 µM (inactive) | 8.91 µM (inactive) | 32.5 µM (inactive) | 31.9 µM (inactive) | 2.36 µM (inactive) | > 100 µM (inactive) | – | – | – |
| O=[PH](O)c1cccnc1 | > 100 µM (inactive) | > 100 µM (inactive) | > 100 | > 100 µM (inactive) | > 100 µM (inactive) | > 100 µM (inactive) | > 100 µM (inactive) | > 100 µM (inactive) | > 100 µM (inactive) | > 100 µM (inactive) | > 100 µM (inactive) | > 100 µM (inactive) | > 100 µM (inactive) | > 100 µM (inactive) | > 100 µM (inactive) | > 100 µM (inactive) | – | – | – |
